# Experimental data taken from patent publication US10160986B2, “Chemoenzymatic synthesis of heparin and heparan sulfate analogs” (The Regents of the University of California, priority 2011, dated 2018).
# What was measured:
# [1] = tested on: His6-PmHS2; experiment: GlcNAcT donor substrate specificity of His6-PmHS2 (Example 12); type: biochemical, Pasteurella multocida; settings: acceptor GlcAβ2AA 1 mM, UDP-sugar 1 mM, MnCl2 10 mM, PmHS2 1.1 μg μl^−1, 24 h, 37° C.
# Method: (§1) PmHS2, KfiA, and related fusion proteins were expressed, purified, and characterized as described in Example 1. Reactions with UDP-sugars were carried out in duplicate at 37° C. in MES (100 mM, pH 6.5) containing UDP-GlcNAc or one of its derivatives (1 mM), GlcAβ2AA (1 mM), MnCl2 (10 mM) and KfiA (2.8 μg μl^−1) or PmHS2 (1.1 μg μl^−1) for 24 h. The reaction mixtures were stopped by adding ice-cold 10% (v/v) acetonitrile to make 100-fold dilutions and the mixtures were analyzed by HPLC as described for the pH profile.
# (§2) Substrate specificity of the GlcNAcT activities of MBP-KfiA-his6 and his6-PmHS2. […] The reactions were easily analyzed by high performance liquid chromatography (HPLC) equipped with a fluorescence detector using an excitation wavelength of 315 nm and an emission wavelength of 400 nm to determine the ratio of the fluorescent disaccharide product formed and the fluorescent GlcAβ2AA acceptor.
# [2] = tested on: T1, MBP-KfiA-His6 (Escherichia coli); experiment: GlcNAcT donor substrate specificity of MBP-KfiA-His6 (Example 12); type: biochemical, E. coli; settings: acceptor GlcAβ2AA 1 mM, UDP-sugar 1 mM, MnCl2 10 mM, KfiA 2.8 μg μl^−1, 24 h, 37° C.
# T1 construct: made in house; host or cells: E. coli BL21(DE3) co-expressing chaperone plasmid pGro7
# Method: as §1, §2
# [3] = tested on: PmHS2; experiment: Small-scale PmHS2 donor substrate test by TLC; type: biochemical, Pasteurella multocida; settings: GlcAβ2AAMe 10 mM, donor 15 mM, MgCl2 10 mM, PmHS2 0.5 mg/mL, pH 7.5, 37° C., 12 hr
# Method: Prior to applying the one-pot three-enzyme system shown in FIG. 16 to the preparative-scale synthesis of the disaccharides, UDP-GlcNAc and derivatives F17-1-F17-12 were tested as donor substrates for PmHS2 in small-scale reaction containing Tris-HCl buffer (100 mM, pH 7.5), GlcAβ2AAMe (10 mM), UDP-GlcNAc or a derivative (15 mM), MgCl2 (10 mM), and PmHS2 (0.5 mg/mL). The reactions were carried out at 37° C. for 12 hr and analyzed by thin layer chromatography (TLC).
Structure (SMILES),donor substrate for the α1-4GlcNAcT activity of His6-PmHS2 [1],donor substrate for MBP-KfiA-His6 [2],donor substrate for PmHS2 [3]
"O=C(Cc1ccccc1)NC1C(OP(=O)(O)OP(=O)(O)OCC2OC(n3ccc(=O)[nH]c3=O)C(O)C2O)OC(CO)C(O)C1O [Compound 33-5, Uridine 5′-diphospho-2-phenylacetamido-2-deoxy-α-D-glucopyranoside]",tolerable donor substrates for His6-PmHS2,not for MBPKfiA-His6,–
"O=C(Cc1ccc(-c2ccccc2)cc1)N[C@H]1[C@@H](OP(=O)(O)OP(=O)(O)OC[C@H]2O[C@@H](n3ccc(=O)[nH]c3=O)[C@H](O)[C@@H]2O)O[C@H](CO)[C@@H](O)[C@@H]1O [Compound 33-6, Uridine 5′-diphospho-2-(1,1′-biphenyl-4-yl)acetamido-2-deoxy-α-D-glucopyranoside]",not suitable donor substrates,not suitable donor substrates,–
"CC(=O)NC1C(OP(=O)(O)OP(=O)(O)OCC2OC(n3ccc(=O)[nH]c3=O)C(O)C2O)OC(CNC(=O)Cc2ccccc2)C(O)C1O [Compound 33-14, Uridine 5′-diphospho-2-acetamido-6-phenylacetamido-2,6-dideoxy-α-D-glucopyranoside]",not suitable donor substrates,not suitable donor substrates,–
"CC(=O)NC1C(OP(=O)(O)OP(=O)(O)OCC2OC(n3ccc(=O)[nH]c3=O)C(O)C2O)OC(CNC(=O)Cc2ccc(-c3ccccc3)cc2)C(O)C1O [Compound 33-15, Uridine 5′-diphospho-2-acetamido-6-(1,1′-biphenyl-4-yl)-acetamido-2,6-dideoxy-α-D-glucopyranoside]",not suitable donor substrates,not suitable donor substrates,–
"CC(=O)N[C@H]1[C@@H](OP(=O)(O)OP(=O)(O)OC[C@H]2O[C@@H](n3ccc(=O)[nH]c3=O)[C@H](O)[C@@H]2O)O[C@H](CO)[C@H](O)[C@@H]1O [Compound 33-18, uridine 5′-diphospho-2-acetamido-2-deoxy-α-D-glacopyranoside]",tolerable donor substrates for His6-PmHS2,not for MBPKfiA-His6,–
"CC(=O)N[C@@H]1[C@@H](OP(=O)(O)OP(=O)(O)OC[C@H]2O[C@@H](n3ccc(=O)[nH]c3=O)[C@H](O)[C@@H]2O)O[C@H](CO)[C@@H](O)[C@@H]1O [Compound 33-20, Uridine 5′-diphospho-2-acetamido-2-deoxy-α-D-mannopyranoside]",not tolerable substrate,not tolerable substrate,–
"[N-]=[N+]=N[C@@H]1[C@@H](OP(=O)(O)OP(=O)(O)OC[C@H]2O[C@@H](n3ccc(=O)[nH]c3=O)[C@H](O)[C@@H]2O)O[C@H](CO)[C@@H](O)[C@@H]1O [Compound 33-21, Uridine 5′-diphospho-2-azido-2-deoxy-α-D-mannopyranoside]",not tolerable substrate,not tolerable substrate,–
"O=c1ccn(C2OC(COP(=O)(O)OP(=O)(O)OC3OC(CO)C(O)C(O)C3F)C(O)C2O)c(=O)[nH]1 [Compound 33-23, Uridine 5′-diphospho-2-fluoro-2-deoxy-α-D-mannopyranoside]",not tolerable substrate,not tolerable substrate,–
"NC1C(OP(=O)(O)OP(=O)(O)OCC2OC(n3ccc(=O)[nH]c3=O)C(O)C2O)OC(CO)C(O)C1O [Compound F17-5, Uridine 5′-diphospho-2-amino-2-deoxy-α-D-glucopyranoside]",not acceptable donor substrates,not acceptable donor substrates,did not serve as donor substrates
"[N-]=[N+]=N[C@H]1[C@@H](OP(=O)(O)OP(=O)(O)OC[C@H]2O[C@@H](n3ccc(=O)[nH]c3=O)[C@H](O)[C@@H]2O)O[C@H](CO)[C@@H](O)[C@@H]1O [Compound F17-6, Uridine 5′-diphospho-2-azido-2-deoxy-α-D-glucopyranoside]",not acceptable donor substrates,not acceptable donor substrates,did not serve as donor substrates
"O=c1ccn([C@@H]2O[C@H](COP(=O)(O)OP(=O)(O)O[C@H]3O[C@H](CO)[C@@H](O)[C@H](O)[C@H]3NS(=O)(=O)O)[C@@H](O)[C@H]2O)c(=O)[nH]1 [Compound F17-7, Uridine 5′-diphospho-2-sulfoamino-2-deoxy-α-D-glucopyranoside]",block the activities of both,–,did not serve as donor substrates
"CC(=O)N[C@H]1[C@@H](OP(=O)(O)OP(=O)(O)OC[C@H]2O[C@@H](n3ccc(=O)[nH]c3=O)[C@H](O)[C@@H]2O)O[C@H](CNC(=O)CO)[C@@H](O)[C@@H]1O [Compound F17-9, Uridine 5′-diphospho-2-acetamido-6-hydroxyacetamido-2,6-dideoxy-α-D-glucopyranoside]",tolerable donor substrates for His6-PmHS2,not for MBPKfiA-His6,tolerable donor substrates
"CC(=O)NC1C(OP(=O)(O)OP(=O)(O)OCC2OC(n3ccc(=O)[nH]c3=O)C(O)C2O)OC(CN)C(O)C1O [Compound F17-10, Uridine 5′-diphospho-2-acetamido-6-amino-2,6-dideoxy-α-D-glucopyranoside]",tolerable donor substrates for His6-PmHS2,not for MBPKfiA-His6,did not serve as donor substrates
"CC(=O)NC1C(OP(=O)(O)OP(=O)(O)OCC2OC(n3ccc(=O)[nH]c3=O)C(O)C2O)OC(CNC(=O)CN=[N+]=[N-])C(O)C1O [Compound F17-11, Uridine 5′-diphospho-2-acetamido-6-azidoacetamido-2,6-dideoxy-α-D-glucopyranoside]",tolerable donor substrates for His6-PmHS2,not for MBPKfiA-His6,did not serve as donor substrates
"CC(=O)N[C@H]1[C@@H](OP(=O)(O)OP(=O)(O)OC[C@H]2O[C@@H](n3ccc(=O)[nH]c3=O)[C@H](O)[C@@H]2O)O[C@H](COS(=O)(=O)O)[C@@H](O)[C@@H]1O [Compound F17-12, Uridine 5′-diphospho-2-acetamido-2-deoxy-6-O-sulfo-α-D-glucopyranoside]",block the activities of both,–,did not serve as donor substrates
